Legend:
velvetleaf = assay: Test B pre/postemergence velvetleaf; assay type: in vivo, Abutilon theophrasti
Outline: (§1)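 Test chemicals in a non-phytotoxic solvent mixture with surfactant were sprayed preemergence onto planted seeds and postemergence onto plants 2 to 18 cm tall (1- to 4-leaf stage). After twelve to sixteen days in a greenhouse, injury was visually rated against untreated controls from 0 (no effect) to 10 (complete control).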

blackgrass = assay: Test B pre/postemergence blackgrass; assay type: in vivo, Alopecurus myosuroides
Outline: as §1

surinam grass = assay: Test B pre/postemergence surinam grass; assay type: in vivo, Brachiaria decumbens
Outline: as §1

wild oat = assay: Test B pre/postemergence wild oat; assay type: in vivo, Avena fatua
Outline: as §1

pigweed = assay: Test B pre/postemergence pigweed; assay type: in vivo, Amaranthus retroflexus
Outline: as §1

crabgrass = assay: Test B pre/postemergence crabgrass; assay type: in vivo, Digitaria sanguinalis
Outline: as §1

cocklebur = assay: Test B pre/postemergence cocklebur; assay type: in vivo, Xanthium strumarium
Outline: as §1

giant foxtail = assay: Test B pre/postemergence giant foxtail; assay type: in vivo, Setaria faberii
Outline: as §1

purple nutsedge = assay: Test B pre/postemergence purple nutsedge; assay type: in vivo, Cyperus rotundus
Outline: as §1

rape = assay: Test B pre/postemergence rape; assay type: in vivo, Brassica napus
Outline: as §1

sugar beet = assay: Test B pre/postemergence sugar beet; assay type: in vivo, Beta vulgaris
Outline: as §1

wheat = assay: Test B pre/postemergence wheat; assay type: in vivo, Triticum aestivum
Outline: as §1

soybean = assay: Test B pre/postemergence soybean; assay type: in vivo, Glycine max
Outline: as §1

morningglory = assay: Test B pre/postemergence morningglory; assay type: in vivo, Ipomoea hederacea
Outline: as §1

corn = assay: Test B pre/postemergence corn; assay type: in vivo, Zea mays
Outline: as §1

bedstraw = assay: Test B pre/postemergence bedstraw; assay type: in vivo, Galium aparine
Outline: as §1

[1] = Postemergence, Rate 62 g/ha, scale 0 to 10, 0 is no effect, 10 is complete control
[2] = Preemergence, Rate 125 g/ha, scale of 0 to 10 where 0 is no effect and 10 is complete control
[3] = Preemergence, Rate 250 g/ha, scale 0 (no effect) to 10 (complete control)
[4] = Rate 62 g/ha, Preemergence, scale 0 to 10
[5] = Rate 250 g/ha, Postemergence, scale 0 to 10, 0 is no effect, 10 is complete control
[6] = Rate 500 g/ha, Postemergence, scale 0 to 10, 0 is no effect, 10 is complete control
[7] = Rate 500 g/ha, Preemergence, scale 0 to 10 (0 no effect, 10 complete control)
[8] = Postemergence, Rate 125 g/ha, scale of 0 to 10 where 0 is no effect and 10 is complete control

CC(C)N(C(=O)n1oc(=O)n(CCN(C)C(=O)c2ccccc2)c1=O)c1ccccc1 [Compound 761]
Plant response rating, Velvetleaf (velvetleaf; [1]): 0 | Plant response rating, Velvetleaf (velvetleaf; [2]): 0 | Velvetleaf plant response rating (velvetleaf; [3]): 0 | Velvetleaf plant response rating (velvetleaf; [4]): 0 | Velvetleaf plant response rating (velvetleaf; [5]): 0 | Velvetleaf plant response rating (velvetleaf; [6]): 0 | Velvetleaf plant response rating (velvetleaf; [7]): 0 | Plant response rating, Blackgrass (blackgrass; [1]): 0 | Blackgrass plant response rating (blackgrass; [8]): 0 | Plant response rating, Blackgrass (blackgrass; [2]): 0 | Blackgrass plant response rating (blackgrass; [3]): 0 | Blackgrass plant response rating (blackgrass; [4]): 0 | Blackgrass plant response rating (blackgrass; [5]): 0 | Blackgrass plant response rating (blackgrass; [6]): 0 | Blackgrass plant response rating (blackgrass; [7]): 0 | Plant response rating, B. signalgrass (surinam grass; [1]): 0 | B. signalgrass plant response rating (surinam grass; [8]): 0 | B. signalgrass plant response rating (surinam grass; Preemergence, Rate 62 g/ha, scale of 0 to 10 where 0 is no effect and 10 is complete control): 0 | Plant response rating, B. signalgrass (surinam grass; [2]): 0 | B. signalgrass plant response rating (surinam grass; [3]): 0 | B. signalgrass plant response rating (surinam grass; [5]): 3 | B. signalgrass plant response rating (surinam grass; [6]): 3 | B. signalgrass plant response rating (surinam grass; [7]): 3 | Plant response rating, Wild oats (wild oat; [1]): 0 | Plant response rating, Wild oats (wild oat; [2]): 0 | Wild oats plant response rating (wild oat; [3]): 0 | Wild oats plant response rating (wild oat; [4]): 0 | Wild oats plant response rating (wild oat; [5]): 0 | Wild oats plant response rating (wild oat; [6]): 0 | Wild oats plant response rating (wild oat; [7]): 0 | Plant response rating, Redroot pigweed (pigweed; [1]): 0 | Plant response rating, Redroot pigweed (pigweed; [2]): 0 | Redroot pigweed plant response rating (pigweed; [3]): 0 | Redroot pigweed plant response rating (pigweed; [4]): 0 | Redroot pigweed plant response rating (pigweed; [5]): 6 | Redroot pigweed plant response rating (pigweed; [6]): 6 | Redroot pigweed plant response rating (pigweed; [7]): 0 | Plant response rating, Crabgrass (crabgrass; [2]): 3 | Crabgrass plant response rating (crabgrass; [3]): 5 | Crabgrass plant response rating (crabgrass; [4]): 3 | Crabgrass plant response rating (crabgrass; [5]): 0 | Crabgrass plant response rating (crabgrass; [6]): 0 | Crabgrass plant response rating (crabgrass; [7]): 3 | Plant response rating, Cocklebur (cocklebur; [1]): 0 | Cocklebur plant response rating (cocklebur; [8]): 0 | Plant response rating, Cocklebur (cocklebur; [2]): 0 | Cocklebur plant response rating (cocklebur; [3]): 0 | Cocklebur plant response rating (cocklebur; [4]): 0 | Cocklebur plant response rating (cocklebur; [5]): 0 | Cocklebur plant response rating (cocklebur; [6]): 0 | Cocklebur plant response rating (cocklebur; [7]): 0 | Plant response rating, Giant foxtail (giant foxtail; [1]): 0 | Giant foxtail plant response rating (giant foxtail; [8]): 0 | Plant response rating, Giant foxtail (giant foxtail; [2]): 0 | Giant foxtail plant response rating (giant foxtail; [3]): 8 | Giant foxtail plant response rating (giant foxtail; [4]): 0 | Giant foxtail plant response rating (giant foxtail; [6]): 3 | Giant foxtail plant response rating (giant foxtail; [7]): 9 | Plant response rating, Nutsedge (purple nutsedge; [1]): 0 | Nutsedge plant response rating (purple nutsedge; [8]): 0 | Plant response rating, Nutsedge (purple nutsedge; [2]): 0 | Nutsedge plant response rating (purple nutsedge; [3]): 0 | Nutsedge plant response rating (purple nutsedge; [4]): 0 | Nutsedge plant response rating (purple nutsedge; [5]): 0 | Nutsedge plant response rating (purple nutsedge; [6]): 0 | Nutsedge plant response rating (purple nutsedge; [7]): 0 | Plant response rating, Rape (rape; [1]): 0 | Rape plant response rating (rape; [8]): 0 | Plant response rating, Rape (rape; [2]): 0 | Rape plant response rating (rape; [3]): 0 | Rape plant response rating (rape; [4]): 0 | Rape plant response rating (rape; [5]): 0 | Rape plant response rating (rape; [6]): 0 | Rape plant response rating (rape; [7]): 0 | Plant response rating, Sugarbeets (sugar beet; [1]): 2 | Plant response rating, Sugarbeets (sugar beet; [2]): 0 | Sugarbeets plant response rating (sugar beet; [3]): 0 | Sugarbeets plant response rating (sugar beet; [4]): 0 | Sugarbeets plant response rating (sugar beet; [5]): 3 | Sugarbeets plant response rating (sugar beet; [6]): 6 | Sugarbeets plant response rating (sugar beet; [7]): 0 | Plant response rating, Wheat (wheat; [1]): 0 | Plant response rating, Wheat (wheat; [2]): 0 | Wheat plant response rating (wheat; [3]): 0 | Wheat plant response rating (wheat; [4]): 0 | Wheat plant response rating (wheat; [5]): 0 | Wheat plant response rating (wheat; [6]): 0 | Wheat plant response rating (wheat; [7]): 0 | Plant response rating, Soybean (soybean; [1]): 2 | Plant response rating, Soybean (soybean; [2]): 0 | Soybean plant response rating (soybean; [3]): 0 | Soybean plant response rating (soybean; [4]): 0 | Soybean plant response rating (soybean; [5]): 3 | Soybean plant response rating (soybean; [6]): 3 | Soybean plant response rating (soybean; [7]): 0 | Plant response rating, Morningglory (morningglory; [1]): 0 | Morningglory plant response rating (morningglory; [8]): 6 | Plant response rating, Morningglory (morningglory; [2]): 0 | Morningglory plant response rating (morningglory; [3]): 0 | Morningglory plant response rating (morningglory; [4]): 0 | Morningglory plant response rating (morningglory; [5]): 7 | Morningglory plant response rating (morningglory; [7]): 0 | Plant response rating, Corn (corn; [1]): 0 | Corn plant response rating (corn; [8]): 0 | Plant response rating, Corn (corn; [2]): 0 | Corn plant response rating (corn; [3]): 0 | Corn plant response rating (corn; [4]): 0 | Corn plant response rating (corn; [5]): 0 | Corn plant response rating (corn; [6]): 0 | Corn plant response rating (corn; [7]): 0 | Bedstraw plant response rating (bedstraw; [8]): 0 | Plant response rating, Bedstraw (bedstraw; [2]): 0 | Bedstraw plant response rating (bedstraw; [3]): 0 | Bedstraw plant response rating (bedstraw; [4]): 0 | Bedstraw plant response rating (bedstraw; [5]): 0 | Bedstraw plant response rating (bedstraw; [6]): 3 | Bedstraw plant response rating (bedstraw; [7]): 0

Source: US6737383B1, “Herbicidal oxadiazolidines” (priority 1999, dated 2004)
